Tested on in the first assay: not listed separately
Briefly: Compound was tested for steady-state selectivity index for inhibition at NMDAreceptor glycine sites was estimated by dividing Kb AMPA by Kb glycine. The class given is functional.
Conditions: not given
Regarding `O=[N+]([O-])c1c(O)nc2cc(Cl)c(Cl)c(Cl)c2c1O`, the Selectivity was 240.

The next assay addresses T1, Glutamate receptor ionotropic, AMPA (Rattus norvegicus) (UniProt P19491+P19492+P19493+P19490). The assay is described as follows: Compound was tested for inhibition of AMPA receptors was measured in oocytes expressing rat cerebral cortex poly(A)+ RNA.(Three cells were examined). Conditions: Oocyte. The class given is functional, cell-based.
As for `O=[N+]([O-])c1c(O)nc2cc(Cl)cc(Cl)c2c1O`, the Kb was 37 µM.

Another assay concerns the target Glutamate NMDA receptor. Briefly: Inhibition of [3H]DCKA binding to NMDA receptor of rat brain membranes. The class given is cell membranes, Membrane.
Conditions: not given
Turning to `O=Nc1c(O)c2c(Cl)cc(Cl)cc2[nH]c1=O`, the concentration for half-maximal inhibition (IC50) (in general, the concentration that gives 50% inhibition) was determined as 33 nM. Still for that read-out and setting: with `Cc1cc(C)c2c(O)c([N+](=O)[O-])c(O)nc2c1` the figure was 290 nM; with `Oc1nc2cc(Cl)c(Cl)c(Cl)c2nc1O`, 30 nM. Still for that read-out and setting: with `O=[N+]([O-])c1c(O)nc2cccc(Cl)c2c1O` the figure was 61000 nM; with `O=Nc1c(O)c2cc(Cl)ccc2[nH]c1=O`, 3400 nM. For the compound `O=Nc1c(O)c2cc(F)c(Cl)c(F)c2[nH]c1=O`, the half-inhibitory concentration (IC50) was found to be 910 nM.

For the compound `O=Nc1c(O)nc2c(Cl)cccc2c1O`, the IC50 is above 100000 nM. `Oc1nc2ccccc2nc1O` gave a half-maximal inhibitory concentration (IC50) of 9800 nM. The same measure, in the same setting: to `O=c1[nH]c2c(F)c(F)c(F)c(F)c2[nH]c1=O` belongs 730 nM; to `O=Nc1c(O)nc2ccccc2c1O`, 1400 nM; to `Oc1nc2cc(Cl)c(Cl)cc2nc1O` [2,3-DIHYDROXY-6,7-DICHLOROQUINOXALINE], 130 nM. The same measure, in the same setting: to `Cc1cc(C)c2nc(O)c(O)nc2c1` belongs 2100 nM; to `O=[N+]([O-])c1c(O)nc2cc(Cl)c(Cl)cc2c1O`, 400 nM.

As to `O=Nc1c(O)nc2cc(Cl)ccc2c1O`, the IC50 was 53 nM. Still for that read-out and setting: to `O=Nc1c(O)nc2cc(Cl)c(Cl)c(Cl)c2c1O` belongs 7 nM; to `Oc1nc2cc(Cl)cc(Cl)c2nc1O`, 280 nM; to `O=[N+]([O-])c1c(O)nc2c(F)c(F)c(F)c(F)c2c1O`, above 100000 nM. Still for that read-out and setting: to `O=[N+]([O-])c1c(O)nc2c(Cl)cccc2c1O` belongs above 100000 nM; to `O=[N+]([O-])c1c(O)nc2c(Cl)c(Cl)c(Cl)cc2c1O`, above 100000 nM; to `O=Nc1c(O)c2c(F)c(F)c(F)c(F)c2[nH]c1=O`, 3300 nM. The same measure, in the same setting: with `O=[N+]([O-])c1c(O)nc2cc(Cl)c(Cl)c(Cl)c2c1O` the figure was 220 nM; with `O=Nc1c(O)nc2cc(Cl)c(Cl)cc2c1O`, 12 nM. In turn, `O=c1[nH]c2ccc(Cl)cc2[nH]c1=O` returned an IC50 of 1800 nM. The same measure, in the same setting: with `O=Nc1c(O)nc2cccc(Cl)c2c1O` the figure was 4400 nM; with `Oc1nc2cc(F)c(Cl)c(F)c2nc1O`, 630 nM; with `Cc1cc(C)c2c(O)c(N=O)c(=O)[nH]c2c1`, 37 nM. In the case of `O=[N+]([O-])c1c(O)nc2ccc(Cl)cc2c1O`, the IC50 is above 100000 nM.

On to `O=[N+]([O-])c1c(O)nc2c(F)c(Cl)c(F)cc2c1O`, for which the IC50 worked out at 40000 nM. Still for that read-out and setting: to `O=[N+]([O-])c1c(O)nc2ccccc2c1O` belongs 34000 nM. Still for that read-out and setting: to `O=[N+]([O-])c1c(O)nc2cc(Cl)cc(Cl)c2c1O` belongs 220 nM.

Tested on in the next assay: not listed separately
Briefly: Compound was tested for steady-state selectivity index for inhibition at NMDA receptor glycine sites was estimated by dividing Kb AMPA by Kb glycine.
Conditions: not given
The class given is functional.
Consider `Cc1cc(C)c2c(O)c([N+](=O)[O-])c(O)nc2c1`, for which the Selectivity was 164. Still for that read-out and setting: with `O=[N+]([O-])c1c(O)nc2cc(Cl)cc(Cl)c2c1O` the figure was 118.

The next assay has as its target Glutamate NMDA receptor. The assay is described as follows: Compound was tested for inhibition of [3H]DCKA binding to NMDA receptor of rat brain membranes. The class given is cell membranes, Membrane.
Conditions: not given
Take `O=[N+]([O-])c1c(O)nc2cc(Cl)ccc2c1O`: the concentration for half-maximal inhibition (IC50) came to 1500 nM.

Another assay addresses T1, Glutamate receptor ionotropic, AMPA (Rattus norvegicus). The assay is described as follows: Compound was tested for inhibition of AMPA receptors was measured in oocytes expressing rat cerebral cortex poly(A)+ RNA.(Three cells were examined ). The class given is functional, cell-based. Conditions: Oocyte.
For the compound `O=[N+]([O-])c1c(O)nc2cc(Cl)c(Cl)c(Cl)c2c1O`, the Kb stood at 19 µM.

The record behind these values is ChEMBL document CHEMBL1129748, “Structure-activity relationships of 4-hydroxy-3-nitroquinolin-2(1H)-ones as novel antagonists at the glycine site of N-methyl-D-aspartate receptors” (J Med Chem, 1996).
